Target: BRD4 (Homo sapiens, UniProt O60885)
Assay: Time resolved fluorescence resonance energy transfer (TR-FRET) binding assay, bromodomain BRD4
Conditions: one of the FRET assays described; read-out: FRET BRD4 IC50

Compound	IC50 [nM]
[2H]C([2H])([2H])c1nnn(C)c1-c1cnc2c3c(Cl)cnc(Cl)c3n([C@H](c3ccccc3)C3CCOCC3)c2c1 [Example 296, 10,13-Dichloro-5-[4-(^2H3)methyl-1-methyl-1H-1,2,3-triazol-5-yl]-8-[(S)-oxan-4-yl(phenyl)methyl]-3,8,11-triazatricyclo[7.4.0.0^2,^7]trideca-1(9),2(7),3,5,10,12-hexaene]	< 1
[2H]C([2H])([2H])c1nnn(C)c1-c1cnc2c3ccc(N4C[C@@H](C)O[C@@H](C)C4)nc3n([C@H](c3ccccc3F)C3CCOCC3)c2c1 [Example 237, 11-[(2R,6S)-2,6-Dimethylmorpholin-4-yl]-8-[(S)-(2-fluorophenyl)(oxan-4-yl)methyl]-5-[4-(^2H3)methyl-1-methyl-1H-1,2,3-triazol-5-yl]-3,8,10-triazatricyclo[7.4.0.0^2,^7]trideca-1(13),2(7),3,5,9,11-hexaene]	< 1
Cc1nnn(C)c1-c1cnc2c3c(NS(C)(=O)=O)ncc(S(C)(=O)=O)c3n([C@H](c3ccccc3)C3CCOCC3)c2c1 [Example 105, N-[5-(Dimethyl-1H-1,2,3-triazol-5-yl)-10-methanesulfonyl-8-[(S)-oxan-4-yl(phenyl)methyl]-3,8,12-triazatricyclo[7.4.0.0^2,^7]trideca-1(13),2(7),3,5,9,11-hexaen-13-yl]methanesulfonamide]	< 10
[2H]C([2H])([2H])c1nnn(C)c1-c1cnc2c3c(OC)ncc(S(C)(=O)=O)c3n(C(c3cccc(F)c3)C3CCOCC3)c2c1 (single isomer, unassigned) [Example 87, 8-[(3-Fluorophenyl)(oxan-4-yl)methyl]-10-methanesulfonyl-13-methoxy-5-[4-(^2H3)methyl-1-methyl-1H-1,2,3-triazol-5-yl]-3,8,12-triazatricyclo[7.4.0.0^2,^7]trideca-1(13),2(7),3,5,9,11-hexaene]	< 1500
COc1ncc(S(C)(=O)=O)c2c1c1ncc(-c3c(C)noc3C)cc1n2C(c1ccccc1)C1CCC(F)(F)CC1 (single isomer, unassigned) [Example 89, 8-[(4,4-Difluorocyclohexyl)(phenyl)methyl]-5-(dimethyl-1,2-oxazol-4-yl)-10-methanesulfonyl-13-methoxy-3,8,12-triazatricyclo[7.4.0.0^2,^7]trideca-1(13),2(7),3,5,9,11-hexaene]	< 1500
Cc1nnn(C)c1-c1cnc2c3c(F)nccc3n([C@H](c3ccccc3)C3CCOCC3)c2c1 [Example 3, 5-(Dimethyl-1H-1,2,3-triazol-5-yl)-13-fluoro-8-[(S)-oxan-4-yl(phenyl)methyl]-3,8,12-triazatricyclo[7.4.0.0^2,^7]trideca-1(13),2(7),3,5,9,11-hexaene]	< 10
[2H]C([2H])([2H])c1nnn(C)c1-c1cnc2c3c(OC)ncc(S(C)(=O)=O)c3n(C(c3ncccc3F)C3CCC(F)(F)CC3)c2c1 (centres unmarked) [Example 72, 8-[(4,4-Difluorocyclohexyl)(3-fluoropyridin-2-yl)methyl]-10-methanesulfonyl-13-methoxy-5-[4-(^2H3)methyl-1-methyl-1H-1,2,3-triazol-5-yl]-3,8,12-triazatricyclo[7.4.0.0^2,^7]trideca-1(13),2(7),3,5,9,11-hexaene]	< 10
Cc1nnn(C)c1-c1cnc2c3ccc(N4CCC(C)(O)CC4)nc3n([C@H](c3ccccc3)C3CCOCC3)c2c1 [Example 180, 1-[5-(Dimethyl-1H-1,2,3-triazol-5-yl)-8-[(S)-oxan-4-yl(phenyl)methyl]-3,8,10-triazatricyclo[7.4.0.0^2,^7]trideca-1(9),2(7),3,5,10,12-hexaen-11-yl]-4-methylpiperidin-4-ol]	< 1
[2H]C([2H])([2H])c1nnn(C)c1-c1cnc2c3c(OC)nc(C(C)(C)O)cc3n([C@H](c3ncccc3F)C3CCOCC3)c2c1 [Example 309, 2-{8-[(S)-(3-Fluoropyridin-2-yl)(oxan-4-yl)methyl]-13-methoxy-5-[4-(^2H3)methyl-1-methyl-1H-1,2,3-triazol-5-yl]-3,8,12-triazatricyclo[7.4.0.0^2,^7]trideca-1(9),2(7),3,5,10,12-hexaen-11-yl}propan-2-ol]	< 10
[2H]C([2H])([2H])c1nnn(C)c1-c1cnc2c3cnc(C(C)(C)O)cc3n([C@H](c3ccc(F)cc3)C3CCOCC3)c2c1 [Example 159, 2-{8-[(S)-(4-Fluorophenyl)(oxan-4-yl)methyl]-5-[4-(^2H3)methyl-1-methyl-1H-1,2,3-triazol-5-yl]-3,8,12-triazatricyclo[7.4.0.0^2,^7]trideca-1(13),2(7),3,5,9,11-hexaen-11-yl}propan-2-ol]	< 1500
[2H]C([2H])([2H])c1nnn(C)c1-c1cnc2c3c(OCC)nccc3n([C@H](c3ccccc3)C3CCOCC3)c2c1 [Example 129, 13-Ethoxy-5-[4-(^2H3)methyl-1-methyl-1H-1,2,3-triazol-5-yl]-8-[(S)-oxan-4-yl(phenyl)methyl]-3,8,12-triazatricyclo[7.4.0.0^2,^7]trideca-1(13),2(7),3,5,9,11-hexaene]	< 1
[2H]C([2H])([2H])c1nnn(C)c1-c1cnc2c3cnc(N4CCN(C)CC4)cc3n([C@H](c3ccccc3F)C3CCOCC3)c2c1 [Example 244, 8-[(S)-(2-Fluorophenyl)(oxan-4-yl)methyl]-5-[4-(^2H3)methyl-1-methyl-1H-1,2,3-triazol-5-yl]-11-(4-methylpiperazin-1-yl)-3,8,12-triazatricyclo[7.4.0.0^2,^7]trideca-1(13),2(7),3,5,9,11-hexaene]	< 10
[2H]C([2H])([2H])c1nnn(C)c1-c1cnc2c3c(C(C)(C)O)cncc3n([C@H](c3ccccc3)C3CCOCC3)c2c1 [Example 298, 2-{5-[4-(^2H3)Methyl-1-methyl-1H-1,2,3-triazol-5-yl]-8-[(S)-oxan-4-yl(phenyl)methyl]-3,8,11-triazatricyclo[7.4.0.0^2,^7]trideca-1(9),2(7),3,5,10,12-hexaen-13-yl}propan-2-ol]	< 10
[2H]C([2H])([2H])c1nnn(C)c1-c1cnc2c3c(OCC4CC4)ncc(S(C)(=O)=O)c3n([C@H](c3ccccc3F)C3CCOCC3)c2c1 [Example 76, 13-(Cyclopropylmethoxy)-8-[(S)-(2-fluorophenyl)(oxan-4-yl)methyl]-10-methanesulfonyl-5-[4-(^2H3)methyl-1-methyl-1H-1,2,3-triazol-5-yl]-3,8,12-triazatricyclo[7.4.0.0^2,^7]trideca-1(13),2(7),3,5,9,11-hexaene]	< 1
COc1ncc(Cl)c2c1c1ncc(-c3c(C)nnn3C)cc1n2[C@H](c1ccccc1)C1CCOCC1 [Example 39, 10-Chloro-5-(dimethyl-1H-1,2,3-triazol-5-yl)-13-methoxy-8-[(S)-oxan-4-yl(phenyl)methyl]-3,8,11-triazatricyclo[7.4.0.0^2,^7]trideca-1(13),2(7),3,5,9,11-hexaene]	< 10
[2H]C([2H])([2H])c1nnn(C)c1-c1cnc2c3c(OC)nccc3n([C@H](c3ccccc3)C3CCOCC3)c2c1 [Example 128, 13-Methoxy-5-[4-(^2H3)methyl-1-methyl-1H-1,2,3-triazol-5-yl]-8-[(S)-oxan-4-yl(phenyl)methyl]-3,8,12-triazatricyclo[7.4.0.0^2,^7]trideca-1(13),2(7),3,5,9,11-hexaene]	< 10
[2H]C([2H])([2H])c1nnn(C)c1-c1cnc2c3ccc(Cl)nc3n(C(c3ccccc3)C3CCC(F)(F)CC3)c2c1 (centres unmarked) [Example 259, 11-Chloro-8-[(4,4-difluorocyclohexyl)(phenyl)methyl]-5-[4-(^2H3)methyl-1-methyl-1H-1,2,3-triazol-5-yl]-3,8,10-triazatricyclo[7.4.0.0^2,^7]trideca-1(13),2(7),3,5,9,11-hexaene]	< 1500
[2H]C([2H])([2H])c1nnn(C)c1-c1cnc2c3ccc(N4C[C@@H](C)N[C@@H](C)C4)nc3n([C@H](c3ccccc3)C3CCOCC3)c2c1 [Example 252, 11-[(3R,5S)-3,5-Dimethylpiperazin-1-yl]-5-[4-(^2H3)methyl-1-methyl-1H-1,2,3-triazol-5-yl]-8-[(S)-oxan-4-yl(phenyl)methyl]-3,8,10-triazatricyclo[7.4.0.0^2,^7]trideca-1(13),2(7),3,5,9,11-hexaene]	< 1
COc1ncc(S(C)(=O)=O)c2c1c1ncc(-c3c(C)noc3C)cc1n2[C@H](c1ccccc1F)C1CCOCC1 [Example 48, 5-(Dimethyl-1,2-oxazol-4-yl)-8-[(S)-(2-fluorophenyl)(oxan-4-yl)methyl]-10-methanesulfonyl-13-methoxy-3,8,12-triazatricyclo[7.4.0.0^2,^7]trideca-1(13),2(7),3,5,9,11-hexaene]	< 1
[2H]C([2H])([2H])c1nnn(C)c1-c1cnc2c3ccc(N4CCN(C5CC5)CC4)nc3n([C@H](c3ccccc3)C3CCOCC3)c2c1 [Example 151, 11-(4-Cyclopropylpiperazin-1-yl)-5-[4-(^2H3)methyl-1-methyl-1H-1,2,3-triazol-5-yl]-8-[(S)-oxan-4-yl(phenyl)methyl]-3,8,10-triazatricyclo[7.4.0.0^2,^7]trideca-1(9),2(7),3,5,10,12-hexaene]	< 10
[2H]C([2H])([2H])c1nnn(C)c1-c1cnc2c3ccc(C4CCS(=O)(=O)CC4)nc3n([C@H](c3ccccc3)C3CCOCC3)c2c1 [Example 205, 4-{5-[4-(^2H3)Methyl-1-methyl-1H-1,2,3-triazol-5-yl]-8-[(S)-oxan-4-yl(phenyl)methyl]-3,8,10-triazatricyclo[7.4.0.0^2,^7]trideca-1(9),2(7),3,5,10,12-hexaen-11-yl}-1λ^6-thiane-1,1-dione]	< 10
Cc1nnn(C)c1-c1cnc2c3c(OC(C)C)ncc(S(C)(=O)=O)c3n([C@H](c3ccccc3)C3CCOCC3)c2c1 [Example 57, 5-(Dimethyl-1H-1,2,3-triazol-5-yl)-10-methanesulfonyl-8-[(S)-oxan-4-yl(phenyl)methyl]-13-(propan-2-yloxy)-3,8,12-triazatricyclo[7.4.0.0^2,^7]trideca-1(13),2(7),3,5,9,11-hexaene]	< 1
Cc1nnn(C)c1-c1cnc2c3cc(Cl)ncc3n([C@H](c3ccccc3F)C3CCOCC3)c2c1 [Example 4, 12-Chloro-5-(dimethyl-1H-1,2,3-triazol-5-yl)-8-[(S)-(2-fluorophenyl)(oxan-4-yl)methyl]-3,8,11-triazatricyclo[7.4.0.0^2,^7]trideca-1(13),2(7),3,5,9,11-hexaene]	< 10
